From patent US20100113613A1, “CYCLOHEXANE POLYALCOHOL FORMULATION FOR TREATMENT OF DISORDERS OF PROTEIN AGGREGATION” (WARATAH PHARMACEUTICALS, priority 2006, published 2010)
Read-outs that look alike come from different tables or passages of the source.

Key:
[1] = Single oral and intravenous dose pharmacokinetics, dose range-finding study in beagle dogs; assay type: in vivo, beagle dog; settings: dogs
Method: PK of single oral doses of the scyllo-cyclohexanhexyl was also investigated in a preliminary fashion in a dose range-finding study in 5 beagle dogs. […] The Cmax and AUC values increased proportionally with dose, consistent with observations in the larger study. Estimates of t½ ranged from 2 to 5 hours. Neither dose nor route of administration had any clear effect on t½, MRT, Cl/F or Vdss.

in vivo [2] = settings: rat; for kel / Vd: 28 days
Method: Plasma PK of a scyllo-cyclohexanehexyl compound in rats was assessed after 28 days oral dosing of 15, 50 and 150 mg/kg, administered twice daily. […] Indeed, at this dose level, the Vdss, clearance and elimination rates appeared to be reduced with repeated dosing. […] As for single doses, the scyllo-cyclohexanehexyl was absorbed rapidly, with mean tmax observed between 1.2 and 1.3 hours post-dose. […] Estimates of MRT were consistent.

in vivo [3] = settings: dog; for AUC(0-inf) / AUC(0-t) / CL/F / Cmax / MRT / Tmax / VdSS / half-life: po
Method: Plasma PK of a scyllo-cyclohexanhexyl in dogs was assessed after 14 days oral dosing of 15, 50 and 150 mg/kg, administered twice daily. As on Day 1 of this study Cmax and AUC values increased proportionally with dose level of scyllo-cyclohexanehexyl. However, dose-normalised exposures appeared to decrease with dose. This contrasts with positive trend observed after acute exposure. […] As for single doses, the scyllo-cyclohexanehexyl was absorbed rapidly, with tmax observed between 1.1 and 1.8 hours post-dose. […] Estimates of MRT were consistent. The Vdss and Cl/F values were similar for all dose levels.

[4] = Brain penetrance: plasma and CSF pharmacokinetics after single oral doses in dogs; assay type: in vivo, dog; settings: dog
From the text: CSF bathes the central nervous system and sits on the inside of the blood brain barrier. Although a centrally-acting drug will still need to penetrate brain tissue to exert an effect, quantification of drug in CSF may provide a gross estimate of brain-penetrance.

[5] = CSF and plasma levels at end of 14 day repeat dose study in dogs; assay type: in vivo, dog; settings: dog, oral, after 14 days dosing; for concentration at 24 h: CSF, read-out: CSF level at 24 h; for concentration at 12 h: plasma, read-out: Plasma level at 12 h
Method: CSF was also collected from dogs at the end of the 14 day repeat study upon necropsy (approximately 24 hours after the final dose was administered). Levels of the scyllo-cyclohexanehexyl in CSF increased with dose and followed the profile observed in plasma.

[6] = single intravenous dose 240 mg/kg
[7] = CSF, single oral dose 240 mg/kg
[8] = PLASMA LEVELS, single oral dose 20 mg/kg
[9] = PLASMA LEVELS, single oral dose 80 mg/kg
[10] = PLASMA LEVELS, single oral dose 240 mg/kg

## OC1C(O)C(O)C(O)C(O)C1O (centres unmarked) [AZD-103, scyllo-inositol]
[1]; single intravenous dose 80 mg/kg
  kel: 0.21 ± 0.02 h⁻¹
[1]; [6]
  Cp0: 127.9 ± 19.1 µg/mL
  kel: 0.30 ± 0.02 h⁻¹
[1]; single oral dose 20 mg/kg
  kel: 0.2 ± 0.2 h⁻¹
[1]; single oral dose 80 mg/kg
  kel: 0.4 ± 0.1 h⁻¹
[1]; single oral dose 240 mg/kg
  kel: 0.4 ± 0.1 h⁻¹
In vivo [2]; 15 mg/kg
  kel: 0.16 ± 0.03 h⁻¹
In vivo [2]; 50 mg/kg
  kel: 0.21 ± 0.03 h⁻¹
In vivo [2]; 150 mg/kg
  kel: 0.22 ± 0.02 h⁻¹
In vivo [2]; po, 15 mg/kg
  AUC(0-inf): 195 ± 71.7 µg·h/mL
  AUC(0-t): 161 ± 57.7 µg·h/mL
  CL/F at 28 days: 2.9 mL/min/kg
  Cmax at 28 days: 28500 ± 4900 ng/mL
  MRT at 28 days: 6.7 ± 0.6 h
  Tmax: 1.3 ± 0.5 h
  half-life at 28 days: 4.4 ± 0.6 h
  Vd: 1.14 L/kg
In vivo [2]; po, 50 mg/kg
  AUC(0-inf): 298 ± 82.2 µg·h/mL
  AUC(0-t): 271 ± 70.7 µg·h/mL
  CL/F at 28 days: 5.95 mL/min/kg
  Cmax at 28 days: 59400 ± 8400 ng/mL
  MRT at 28 days: 4.9 ± 0.8 h
  Tmax: 1.2 ± 0.4 h
  half-life at 28 days: 3.3 ± 0.5 h
  Vd: 1.73 L/kg
In vivo [2]; po, 150 mg/kg
  AUC(0-inf): 615 ± 129 µg·h/mL
  AUC(0-t): 573 ± 128 µg·h/mL
  CL/F at 28 days: 8.41 mL/min/kg
  Cmax: 171000 ± 79900 ng/mL
  MRT at 28 days: 4.6 ± 0.8 h
  Tmax: 1.2 ± 0.4 h
  half-life at 28 days: 3.1 ± 0.3 h
  Vd: 2.34 L/kg
In vivo [3]; 15 mg/kg
  kel: 0.2 ± 0.08 h⁻¹
  AUC(0-inf): 95.2 ± 18.6 µg·h/mL
  AUC(0-t): 75.2 ± 9.4 µg·h/mL
  CL/F: 0.698 mL/min/kg
  Cmax: 16400 ± 4500 ng/mL
  MRT: 7.4 ± 1.5 h
  Tmax: 1.7 ± 0.5 h
  VdSS: 0.3017 ± 0.0419 L/kg
  half-life: 4.7 ± 2 h
In vivo [3]; 50 mg/kg
  kel: 0.2 ± 0.1 h⁻¹
  AUC(0-inf): 262 ± 52.4 µg·h/mL
  AUC(0-t): 232 ± 50.2 µg·h/mL
  CL/F: 0.86 mL/min/kg
  Cmax: 59400 ± 13000 ng/mL
  MRT: 5.3 ± 1.2 h
  Tmax: 1.1 ± 0.5 h
  VdSS: 0.2726 ± 0.1217 L/kg
  half-life: 3.8 ± 1.2 h
In vivo [3]; 150 mg/kg
  kel: 0.3 ± 0.04 h⁻¹
  AUC(0-inf): 557 ± 133 µg·h/mL
  AUC(0-t): 523 ± 123 µg·h/mL
  CL/F: 1.2 mL/min/kg
  Cmax: 121000 ± 26700 ng/mL
  MRT: 4.6 ± 0.4 h
  Tmax: 1.8 ± 0.4 h
  VdSS: 0.3321 ± 0.0881 L/kg
  half-life: 2.9 ± 0.6 h
[4]; CSF, single oral dose 20 mg/kg
  AUC(0-inf): 38 ± 22.8 µg·h/mL
  AUC(0-t): 20.6 ± 6.6 µg·h/mL
  Cmax: 2300 ± 1400 ng/mL
  Tmax: 4 ± 1.7 h
[4]; CSF, single oral dose 80 mg/kg
  AUC(0-inf): 103 ± 13.1 µg·h/mL
  AUC(0-t): 98 ± 13.2 µg·h/mL
  Cmax: 18700 ± 1000 ng/mL
  Tmax: 2.8 ± 1.5 h
[4]; [7]
  AUC(0-inf): 401 ± 204 µg·h/mL
  AUC(0-t): 384 ± 204 µg·h/mL
  Cmax: 67400 ± 28600 ng/mL
  Tmax: 3 ± 1.7 h
[4]; [8]
  AUC(0-inf): 52.7 ± 17.9 µg·h/mL
  AUC(0-t): 42.6 ± 9.6 µg·h/mL
  Cmax: 6100 ± 3600 ng/mL
  Tmax: 2.8 ± 2.2 h
[4]; [9]
  AUC(0-inf): 255 ± 58.6 µg·h/mL
  AUC(0-t): 250 ± 59.3 µg·h/mL
  Tmax: 2.3 ± 1.3 h
[4]; [10]
  AUC(0-inf): 528 ± 74.6 µg·h/mL
  AUC(0-t): 514.5 ± 0.3 µg·h/mL
  Cmax: 101000 ± 17800 ng/mL
  Tmax: 2.3 ± 1.5 h
[5]; Dose 30 mg/kg
  concentration at 24 h: 4000 ng/mL
  concentration at 12 h: 3600 ng/mL
[5]; Dose 100 mg/kg
  concentration at 24 h: 7500 ng/mL
  concentration at 12 h: 5800 ng/mL
[5]; Dose 300 mg/kg
  concentration at 24 h: 10900 ng/mL
  concentration at 12 h: 8200 ng/mL
